Counter-ions that a name gives are not always drawn.
Legend:
[1] = system: K+ channels in SCG neurons; assay: Potassium current in superior cervical ganglion neurons (whole-cell voltage clamp); assay type: cell-based, rat
Protocol: (§1) Electrophysiological techniques were used to measure the effects of experimental compounds on voltage-gated Ca^2+, […] , and K^+ channels. […] Sodium and potassium channel currents were measured from acutely dissociated SCG neurons.
(§2) Dissociation of the neurons from the ganglia was accomplished using a 30 to 45 minute treatment in 0.25% trypsin, similar to methods outlined in Higgins, et al. (see Higgins D. et al. “Tissue culture of mammalian autonomic neurons.” In Banker G. and Goslin K. (Eds), Culturing Nerve Cells, Cambridge, Mass., MIT Press [1991]).
(§3) Ca^2+, Na^+, and K^+ channel currents in SCG neurons were measured using conventional single electrode whole-cell voltage-clamp techniques, outlined in Hamill et al., (see Hamill O. P. et al. “Improved patch-clamp techniques for high resolution current recordings from cells and cell-free membrane patches.”Pflugers Arch., 1981;391:85-100). For Ca^2+ channel experiments, the external bathing solution contained tetraethylammonium chloride (100 mM), choline chloride (52 mM), NaCl (15 mM), HEPES (10 mM), glucose (5.6 mM), CaCl2 (2 mM), and MgCl2 (0.8 mM), pH 7.35 with KOH; with the internal pipette solution containing cesium methane sulfonate (140 mM), EGTA (10 mM), and HEPES (10 mM), supplemented with 5 mM Mg^2+-ATP on the day of the experiment, pH 7.4 with CsOH. For Na^+ and K^+ channel experiments, the external bathing solution contained NaCl (150 mM), KCl (5 mM), MgCl2 (1.1 mM), CaCl2 (2.6 mM), Na-HEPES (10 mM), and glucose (10 mM), pH 7.4; with the internal pipette solution containing KCl (80 mM), K-gluconate (50 mM), HEPES (10 mM), and EGTA (10 mM), pH 7.4 with KOH. Experimental compounds were diluted into the external solution and applied to the soma of cells by local perfusion from large diameter (20-50 μm) glass micropipettes or from a U-tube applicator.
(§4) For Na^+ and K^+ channel currents, following the determination of the I/V relationship for each cell in control solution, currents were evoked from a holding potential between −65 and −55 mV by stepping every 10 sec to a test potential of either 0 mV for Na^+ or +50 mV for K^+ current for a duration of 35 msec. Peak inward current was measured for Na^+ and sustained current for K^+ channel currents. […] Test compounds were applied until steady-state block was achieved. Data were expressed as percent inhibition of control amplitudes for Na^+ and K^+ channel currents.

[2] = molecular target: T1, N-type Ca2+ channels in cultured superior cervical ganglion (SCG) neurons (Rattus norvegicus, UniProt Q02294); assay: Calcium current in superior cervical ganglion neurons (whole-cell voltage clamp); assay type: cell-based; details: for inhibition at 1 µM: read-out: SCG Ca, % blockage at 1 μM; for inhibition at 10 µM: read-out: SCG Ca, % blockage at 10 μM; for IC50: read-out: SCG Ca, IC50
T1 construct: from tissue
Protocol: as §1, §2, §3
After obtaining a whole-cell recording, Ca^2+ channels were elicited by stepping to test potentials between −40 and +20 mV for 120 msec from the holding potential of −90 mV to determine if the amplitude of the current and clamp control were adequate for evaluation of drug effects. Ca^2+ channel currents were evoked by stepping from a holding potentials between −65 mV and −55 mV to a test potential of +20 mV for 150 msec every 40 seconds. The amplitude of the Ca^2+ channel currents were compared before and during drug application and drug effects expressed as percent inhibition of the amplitude of control currents.

[3] = molecular target: T2, L-type calcium channels in A10 cells (Rattus norvegicus, UniProt P22002); assay: L-type Ca2+ channel blocking potency in A10 cells (FLIPR); assay type: cell-based; details: read-out: FLPA10 IC50
T2 construct: which endogenously expresses L-type calcium channels; host or cells: A10 rat embryonic thoracic aorta smooth muscle cells
T2 sequence (P22002 whole entry): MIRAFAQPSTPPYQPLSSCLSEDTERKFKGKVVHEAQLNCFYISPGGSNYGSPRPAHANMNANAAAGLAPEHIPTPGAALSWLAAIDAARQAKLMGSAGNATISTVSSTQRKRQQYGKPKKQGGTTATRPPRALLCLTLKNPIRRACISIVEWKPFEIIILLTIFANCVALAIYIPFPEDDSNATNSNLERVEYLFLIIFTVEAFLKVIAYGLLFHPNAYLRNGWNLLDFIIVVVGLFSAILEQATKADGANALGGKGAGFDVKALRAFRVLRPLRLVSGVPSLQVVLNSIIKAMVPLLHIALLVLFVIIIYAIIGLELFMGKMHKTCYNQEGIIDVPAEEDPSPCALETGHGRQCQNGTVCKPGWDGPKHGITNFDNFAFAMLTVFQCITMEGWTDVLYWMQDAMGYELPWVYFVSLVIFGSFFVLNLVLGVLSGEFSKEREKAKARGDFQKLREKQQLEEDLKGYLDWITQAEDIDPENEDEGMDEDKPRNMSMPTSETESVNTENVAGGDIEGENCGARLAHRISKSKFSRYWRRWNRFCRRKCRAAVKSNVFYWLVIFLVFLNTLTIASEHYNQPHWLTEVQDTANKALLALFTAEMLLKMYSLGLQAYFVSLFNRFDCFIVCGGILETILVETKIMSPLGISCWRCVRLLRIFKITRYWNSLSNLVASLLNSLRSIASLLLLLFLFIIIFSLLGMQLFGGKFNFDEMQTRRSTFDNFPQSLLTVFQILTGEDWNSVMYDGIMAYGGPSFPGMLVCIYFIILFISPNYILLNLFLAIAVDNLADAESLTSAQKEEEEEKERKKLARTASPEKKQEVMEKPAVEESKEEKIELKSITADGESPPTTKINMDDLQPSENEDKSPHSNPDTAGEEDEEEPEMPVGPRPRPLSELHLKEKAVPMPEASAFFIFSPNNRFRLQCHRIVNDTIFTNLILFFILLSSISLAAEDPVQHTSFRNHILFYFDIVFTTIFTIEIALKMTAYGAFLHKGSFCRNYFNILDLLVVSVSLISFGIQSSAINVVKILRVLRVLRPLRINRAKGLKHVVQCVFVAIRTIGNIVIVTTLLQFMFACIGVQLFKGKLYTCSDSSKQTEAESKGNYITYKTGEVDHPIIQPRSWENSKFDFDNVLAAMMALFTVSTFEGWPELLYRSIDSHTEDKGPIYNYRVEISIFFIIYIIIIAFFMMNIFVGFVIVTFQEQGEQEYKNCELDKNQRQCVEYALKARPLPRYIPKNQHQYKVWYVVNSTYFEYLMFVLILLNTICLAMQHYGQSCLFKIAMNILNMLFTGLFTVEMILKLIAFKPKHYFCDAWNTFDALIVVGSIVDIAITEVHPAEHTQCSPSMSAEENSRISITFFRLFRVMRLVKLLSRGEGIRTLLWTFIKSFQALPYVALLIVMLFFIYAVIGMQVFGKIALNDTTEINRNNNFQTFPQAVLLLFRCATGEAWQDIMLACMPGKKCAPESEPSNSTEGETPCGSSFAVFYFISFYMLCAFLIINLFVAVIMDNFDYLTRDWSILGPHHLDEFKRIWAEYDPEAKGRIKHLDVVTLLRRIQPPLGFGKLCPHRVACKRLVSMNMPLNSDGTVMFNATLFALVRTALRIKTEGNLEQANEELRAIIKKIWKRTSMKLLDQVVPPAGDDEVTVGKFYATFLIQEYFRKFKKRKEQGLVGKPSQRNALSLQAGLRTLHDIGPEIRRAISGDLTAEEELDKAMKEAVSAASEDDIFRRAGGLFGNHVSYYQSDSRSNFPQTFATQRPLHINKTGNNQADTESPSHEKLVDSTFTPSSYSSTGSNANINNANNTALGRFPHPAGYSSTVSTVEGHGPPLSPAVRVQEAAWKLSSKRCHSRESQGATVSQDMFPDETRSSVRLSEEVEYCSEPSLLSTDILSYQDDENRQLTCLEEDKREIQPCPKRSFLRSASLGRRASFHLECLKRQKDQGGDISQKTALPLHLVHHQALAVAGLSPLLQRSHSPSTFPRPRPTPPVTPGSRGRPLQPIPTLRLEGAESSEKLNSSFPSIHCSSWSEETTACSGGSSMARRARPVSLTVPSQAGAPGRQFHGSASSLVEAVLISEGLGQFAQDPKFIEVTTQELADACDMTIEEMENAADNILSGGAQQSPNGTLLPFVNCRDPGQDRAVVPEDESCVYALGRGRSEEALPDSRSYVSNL
T2 sequence (P54290 25-944 partner limits assumed): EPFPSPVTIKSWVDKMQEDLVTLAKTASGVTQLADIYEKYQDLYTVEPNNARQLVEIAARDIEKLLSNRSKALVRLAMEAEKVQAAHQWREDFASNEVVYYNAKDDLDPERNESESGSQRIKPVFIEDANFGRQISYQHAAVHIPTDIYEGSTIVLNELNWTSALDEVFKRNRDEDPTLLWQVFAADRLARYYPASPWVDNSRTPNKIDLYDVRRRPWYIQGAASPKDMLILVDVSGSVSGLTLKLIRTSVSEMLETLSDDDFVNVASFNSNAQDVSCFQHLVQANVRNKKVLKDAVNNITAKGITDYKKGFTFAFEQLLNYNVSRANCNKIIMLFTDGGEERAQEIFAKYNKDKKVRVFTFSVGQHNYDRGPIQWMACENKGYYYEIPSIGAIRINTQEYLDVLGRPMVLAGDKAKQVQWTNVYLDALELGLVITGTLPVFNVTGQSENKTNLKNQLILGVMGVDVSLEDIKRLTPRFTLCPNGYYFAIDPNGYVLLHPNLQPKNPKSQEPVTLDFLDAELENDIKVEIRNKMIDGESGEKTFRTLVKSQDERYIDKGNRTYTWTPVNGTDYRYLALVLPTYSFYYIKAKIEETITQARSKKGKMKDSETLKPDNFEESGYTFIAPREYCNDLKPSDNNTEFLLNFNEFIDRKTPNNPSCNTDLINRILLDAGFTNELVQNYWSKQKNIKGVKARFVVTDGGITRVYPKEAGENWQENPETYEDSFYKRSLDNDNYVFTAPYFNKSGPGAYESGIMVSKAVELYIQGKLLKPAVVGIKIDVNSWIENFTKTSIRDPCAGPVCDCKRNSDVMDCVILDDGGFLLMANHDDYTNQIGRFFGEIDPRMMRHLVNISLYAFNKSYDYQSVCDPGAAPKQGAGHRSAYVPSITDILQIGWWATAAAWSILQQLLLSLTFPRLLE
T2 sequence (P54290 945-1091 partner limits assumed): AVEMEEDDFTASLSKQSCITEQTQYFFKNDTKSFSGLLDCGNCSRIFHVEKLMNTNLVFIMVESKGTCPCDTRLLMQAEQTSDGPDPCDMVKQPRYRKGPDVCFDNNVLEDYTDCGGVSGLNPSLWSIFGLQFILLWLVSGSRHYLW
T2 sequence (P54287 whole entry partner): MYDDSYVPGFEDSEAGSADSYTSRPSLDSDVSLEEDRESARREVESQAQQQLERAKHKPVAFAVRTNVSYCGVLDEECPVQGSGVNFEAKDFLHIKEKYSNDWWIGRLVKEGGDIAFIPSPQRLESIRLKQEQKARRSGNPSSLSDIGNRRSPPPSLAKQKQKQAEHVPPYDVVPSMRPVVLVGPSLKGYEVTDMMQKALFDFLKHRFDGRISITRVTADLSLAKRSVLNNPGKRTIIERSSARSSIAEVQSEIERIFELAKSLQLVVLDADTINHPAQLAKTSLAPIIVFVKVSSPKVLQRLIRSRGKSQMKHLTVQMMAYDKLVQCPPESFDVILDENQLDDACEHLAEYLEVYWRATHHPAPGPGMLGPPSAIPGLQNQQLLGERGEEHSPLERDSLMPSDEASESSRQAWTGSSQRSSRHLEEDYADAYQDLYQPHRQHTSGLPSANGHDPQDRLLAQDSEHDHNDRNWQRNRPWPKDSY
Outline: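 Rat A10 aortic smooth-muscle cells endogenously expressing L-type channels were loaded with Oregon Green BAPTA-1 and preincubated with compound for 5 min at 35 °C. Cells were then depolarized with 140 mM KCl buffer. Summed fluorescence above basal over 120 s gave % inhibition versus buffer-treated stimulated wells, with zero influx defined by 1.0×10^−6 M nitrendipine.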

[4] = system: Na+ channels in SCG neurons; assay: Sodium current in superior cervical ganglion neurons (whole-cell voltage clamp); assay type: cell-based, rat
Protocol: as §1, §2, §3, §4

SMILES | SCG K, % blockage at 1 μM [1] [% @ 1] | inhibition at 1 µM [2] [%] | inhibition at 10 µM [2] [%] | IC50 [3] [nM] | SCG K, % blockage at 10 μM [1] [% @ 10] | SCG Na, % blockage at 1 μM ([4]; at 1 μM) [% @ 1] | SCG Na, % blockage at 10 μM [4] [% @ 10] | IC50 [2] [nM] | IC50 [1] [nM] | IC50 [4] [nM]
CC(C)C[C@@H](C(=O)N1CCN(C(c2ccc(F)cc2)c2ccc(F)cc2)CC1)N(C)C [Example 39, (S)-1-{4-[Bis-(4-fluoro-phenyl)-methyl]-piperazin-1-yl}-2-dimethylamino-4-methyl-pentan-1-one dihydrochloride] | 6 | 15 | 75 | 890 |  |  |  |  |  | 
CC(C)C[C@H](NC(=O)N1CCCCCC1)C(=O)N1CCN(C(c2ccc(F)cc2)c2ccc(F)cc2)CC1 [Example 31, (S)-Azepane-1-carboxylic acid (1-{4-[bis-(4-fluoro-phenyl)-methyl]-piperazine-1-carbonyl}-3-methyl-butyl)-amide] |  | 2.5 | 62 | 1200 |  |  |  |  |  | 
CC(C)CCN(C)[C@@H](CC(C)C)C(=O)NCCCC(c1ccc(F)cc1)c1ccc(F)cc1 [Example 28, (S)-4-Methyl-2-[methyl-(3-methyl-butyl)-amino]-pentanoic acid [4,4-bis-(4-fluoro-phenyl)-butyl]-amide monohydrochloride] | 3 | 55 | 88 | 290 | 47 | 5 | 90 |  |  | 
CC(C)C[C@H](N)C(=O)NCCCC(c1ccc(F)cc1)c1ccc(F)cc1 [Example 7, (S)-2-Amino-4-methyl-pentanoic acid [4,4-bis-(4-fluoro-phenyl)-butyl]-amide monohydrochloride] |  | 45 | 98 | 280 | 90 |  |  |  |  | 
CC(C)[C@H](NC(=O)N1CCCCCC1)C(=O)N1CCN(C(c2ccc(F)cc2)c2ccc(F)cc2)CC1 [Example 33, (S)-Azepane-1-carboxylic acid (1-{4-[bis-(4-fluoro-phenyl)-methyl]-piperazine-1-carbonyl}-2-methyl-propyl)-amide] |  | 18 | 72 | 360 | 39 |  | 22 |  |  | 
CC(C)C[C@@H](CN1CCN(C(c2ccc(F)cc2)c2ccc(F)cc2)CC1)NC(=O)N1CCCCCC1 [Example 36, (S)-Azepane-1-carboxylic acid (1-{4-[bis-(4-fluoro-phenyl)-methyl]-piperazin-1-ylmethyl}-3-methyl-butyl)-amide] |  | 18 | 81 | 270 | 27 |  | 81 |  |  | 
CN[C@@H](CC(C)C)C(=O)NCCCC(c1ccc(F)cc1)c1ccc(F)cc1 [Example 12, (S)-4-Methyl-2-methylamino-pentanoic acid [4,4-bis-(4-fluoro-phenyl)-butyl]-amide monohydrochloride] | 15 | 3 | 94 | 600 | 58 |  | 87 |  |  | 
CC(C)C[C@H](NCC1CCCCC1)C(=O)NCCCC(c1ccc(F)cc1)c1ccc(F)cc1 [Example 8, (S)-2-(Cyclohexylmethyl-amino)-4-methyl-pentanoic acid [4,4-bis-(4-fluoro-phenyl)-butyl]-amide monohydrochloride] |  |  |  | 450 | 50 |  | 94 | 2400 |  | 
CC(C)C[C@@H](C(=O)NCCCC(c1ccc(F)cc1)c1ccc(F)cc1)N(C)Cc1ccc(C(C)(C)C)cc1.Cl [Example 14, (S)-2-[(4-tert-Butyl-benzyl)-methyl-amino]-4-methyl-pentanoic acid [4,4-bis-(4-fluoro-phenyl)-butyl]-amide monohydrochloride] |  |  | 8 | > 3000 | −1 |  |  |  |  | 
CC(C)=CCN[C@@H](CC(C)C)C(=O)NCCCC(c1ccc(F)cc1)c1ccc(F)cc1 [Example 9, (S)-4-Methyl-2-(3-methyl-but-2-enylamino)-pentanoic acid [4,4-bis-(4-fluoro-phenyl)-butyl]-amide monohydrochloride] |  |  |  | 390 |  |  |  | 53000 | 9100 | 8500

Reference: patent publication US6458781B1, “Substituted diarylalkyl amides as calcium channel antagonists” (priority 1998, dated 2002)
